Patent publication US8618054B2, “Interleukin-1 receptor antagonists, compositions, and methods of treatment” (Valorisation-Rechereche Société en Commandite, priority 2004, dated 2013)
Marks after values point to notes of the source that are not given here. One block for each compound: values may come before it. Where a SMILES comes first, the peptide text is derived from it.

What was measured:
IL-1R/IL-1RacP receptor [1] = assay: IL-1-induced PGE2 synthesis in piglet brain microvascular endothelial cells; assay type: cell-based, porcine; settings: for potency and efficacy, IL-1-induced PGE2 synthesis: truncated derivatives, FIG. 18 (WI-38 and endothelial cells)
Protocol: (§1) It is well known in the art that IL-1 induces the synthesis of prostaglandin E2 (PGE2) in endothelial cells and/or chondrocytes in vitro. Therefore, human chondrocytes and piglet brain microvascular endothelial cells were pre-incubated 45-60 minutes at 37° C. with peptide API-101 (^10−6M) and human IL-1 (10 ng/ml) was added in the growing medium. After 24 hours of incubation, growth medium was collected and evaporated. PGE2 measurement was determined by RIA assay with a commercial kit (Cederlane).

[2] = TNBS-induced inflammatory bowel disease rat model, Example 6 (48 h; MPO, macroscopic, histologic); assay type: in vivo; parameters: macroscopic evaluation (median score): scale not given here
Protocol: Colon inflammation was induced by intra-rectal/colon administration of the hapten trinitrobenzene sulphonic acid (TNBS) on male Sprague-Dawley rats (175-200 g) (Bouma, Nature Rev, 2003; Morris, Gastroenterology, 1989). Animals were anesthetized with isoflurane and TNBS dissolved in 50% ethanol (vol/vol). 120 mg/ml (TNBS) was administered into the colon (total volume of 0.25 ml per rat) using a polyethylene tube (PE50). The cannula was inserted at 8 cm from the anus and kept in place for at least 15 min after TNBS administration in order to prevent expulsion of the solution. […] A third group (control) was not injected with TNBS. Six days after administration of TNBS, rats were killed by CO2 inhalation. Day 6 was chosen as an endpoint because by day 7 spontaneous tissue regeneration begins and this can mask the therapeutic effect of the tested peptide or peptide derivative. Colon was removed and examined macroscopically (adhesions, ulcerations, discoloration and bleeding) and histologically (neutrophil infiltration, epithelial injury, crypt distortion and ulcerations) (Anthony et al. 1995; Padol et al. 2000; Dieleman, L A, et al. 1997; Torres M I et al. 1999). Two animals per group were studied.
Colon inflammation was induced by intra-rectal/colon administration of the hapten trinitrobenzene sulphonic acid (TNBS) as described in Example 4. Two hours prior to TNBS administration, peptides, peptidomimetics or 0.9% saline were administered intravenously (iv) via the caudal vein (various concentrations of mg/kg/d) (total volume of 0.3 ml). […] A third group (control) was not injected with TNBS. […] Also, these IL-1R antagonists were given twice a day (BID); Remicade® (anti-TNFα) (10 mg/kg) and dexamethasone (0.75 mg/kg) were administered intraperitoneally but only once a day (qd). The intrarectal administration (ir) of 101.10, 101.113 (1 and 2.5 mg/kg), and 5-ASA (50 mg/kg) was done one hour after TNBS administration, and twice a day, except for 5-ASA which is once a day. Finally, 101.10 (1-5 mg/kg) was also administered orally by gavage (po), twice a day. Forty-eight hours after administration of TNBS, rats were killed by CO2 inhalation. Colon was removed and assessed macroscopically (adhesions, ulcerations, discoloration and bleeding) and histologically (neutrophil infiltration, epithelial injury, crypt distortion and ulcerations). One to seven animals per group were studied, according to treatments. Myeloperoxidase (MPO) activity was measured on tissue lysates.

IL-1R/IL-1RacP receptor [3] = molecular target: T1, IL-1R/IL-1RacP receptor (Sus scrofa, UniProt A0A5G2QSI4); assay: IL-1-induced PGE2 synthesis in piglet brain microvascular endothelial cells; assay type: cell-based, porcine; settings: endothelial cells; for inhibition of IL-1-induced PGE2 synthesis, compared with parent API-101: alanine scan peptides 10^−6M
T1 construct: endogenous in cells; host or cells: piglet brain microvascular endothelial cells
T1 sequence (A0A5G2QSI4 21-572): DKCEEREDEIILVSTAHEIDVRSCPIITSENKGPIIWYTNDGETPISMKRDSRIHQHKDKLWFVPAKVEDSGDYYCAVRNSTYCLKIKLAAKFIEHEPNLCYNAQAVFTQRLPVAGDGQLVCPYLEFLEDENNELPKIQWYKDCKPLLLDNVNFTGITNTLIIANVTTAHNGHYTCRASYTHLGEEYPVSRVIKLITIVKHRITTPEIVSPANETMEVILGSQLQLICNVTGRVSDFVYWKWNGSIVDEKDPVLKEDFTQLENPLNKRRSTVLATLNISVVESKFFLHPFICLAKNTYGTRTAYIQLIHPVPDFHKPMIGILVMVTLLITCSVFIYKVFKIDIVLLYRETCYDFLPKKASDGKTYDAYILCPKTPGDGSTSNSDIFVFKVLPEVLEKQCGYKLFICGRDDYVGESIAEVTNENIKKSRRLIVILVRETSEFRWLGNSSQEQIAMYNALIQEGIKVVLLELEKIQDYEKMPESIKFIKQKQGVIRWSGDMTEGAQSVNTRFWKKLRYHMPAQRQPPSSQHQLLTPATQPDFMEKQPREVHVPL
Protocol: as §1

IL-1R = molecular target: T2, IL-1R (Homo sapiens, UniProt P14778); assay: Characterization of peptidomimetics (FIGS. 26, 29, 30; assay not stated); settings: FIG. 26
T2 sequence (P14778 18-569): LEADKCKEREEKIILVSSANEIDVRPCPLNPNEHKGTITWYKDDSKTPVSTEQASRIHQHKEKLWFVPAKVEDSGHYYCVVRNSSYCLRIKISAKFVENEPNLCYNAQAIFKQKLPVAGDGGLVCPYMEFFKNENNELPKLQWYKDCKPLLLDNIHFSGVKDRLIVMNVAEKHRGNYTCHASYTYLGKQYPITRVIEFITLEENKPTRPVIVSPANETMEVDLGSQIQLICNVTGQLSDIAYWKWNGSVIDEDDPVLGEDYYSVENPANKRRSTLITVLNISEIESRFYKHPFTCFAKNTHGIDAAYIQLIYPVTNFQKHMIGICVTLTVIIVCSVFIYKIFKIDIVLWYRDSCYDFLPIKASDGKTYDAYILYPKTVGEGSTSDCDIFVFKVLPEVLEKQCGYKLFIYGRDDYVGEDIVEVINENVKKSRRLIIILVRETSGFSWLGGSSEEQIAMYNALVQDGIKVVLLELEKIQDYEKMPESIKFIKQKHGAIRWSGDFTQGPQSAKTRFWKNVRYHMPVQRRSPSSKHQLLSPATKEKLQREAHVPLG

IL-1R/IL-1RacP receptor [4] = molecular target: T3, IL-1R/IL-1RacP receptor (Rattus norvegicus, UniProt Q02955); assay: IL-1β-induced systemic hypotension in rats; assay type: in vivo; settings: jugular injection
T3 construct: from tissue; host or cells: whole animal, Sprague-Dawley rat
T3 sequence (Q02955 20-576): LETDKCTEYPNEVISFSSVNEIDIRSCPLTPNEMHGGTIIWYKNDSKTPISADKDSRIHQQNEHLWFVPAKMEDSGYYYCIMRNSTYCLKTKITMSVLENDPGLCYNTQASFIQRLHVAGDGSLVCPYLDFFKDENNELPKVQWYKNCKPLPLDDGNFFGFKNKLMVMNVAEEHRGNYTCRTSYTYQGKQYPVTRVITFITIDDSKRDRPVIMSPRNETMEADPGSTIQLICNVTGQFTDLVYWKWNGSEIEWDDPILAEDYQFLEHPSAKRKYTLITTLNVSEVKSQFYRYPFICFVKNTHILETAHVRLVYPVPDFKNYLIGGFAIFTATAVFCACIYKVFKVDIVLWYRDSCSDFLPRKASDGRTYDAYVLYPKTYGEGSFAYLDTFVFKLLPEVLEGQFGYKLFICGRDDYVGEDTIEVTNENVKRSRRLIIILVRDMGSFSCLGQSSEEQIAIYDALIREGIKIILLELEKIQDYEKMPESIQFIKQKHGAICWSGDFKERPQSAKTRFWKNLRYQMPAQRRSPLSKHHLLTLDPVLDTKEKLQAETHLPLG
Protocol: The API-101 derivatives, API-101.10 (SEQ ID NO: 10) (and others) were tested to assess whether they could reverse the physiological actions of the natural ligand in vivo by injecting the derivative through the jugular or directly into the stomach (to verify the stability of the peptide through the digestive tract). Sprague-Dawley rats (300 g) were anesthetized with isoflurane (2.5-4%). The natural ligand (IL-1β) or vehicle (saline) was injected through the jugular vein (5 μg/kg). Blood was taken from the carotid artery for subsequent PGE2 measurements before and 10 min after each injection. Peptides were administered (dosage based on IC50 values and a volume of distribution equivalent to the extracellular space) either in the jugular vein or directly in the stomach (5 times dose used intravenously, (iv)). Arterial blood pressure and heart rate were continuously monitored (Gould) while temperature and blood gases (Radiometer) were measured for routine analysis as previously described (Li et al. 1997; Hardy et al. 1999; Najarian et al. 2000). Experiments were repeated 3 times.

IL-1R/IL-1RacP receptor [5] = molecular target: T4, IL-1R/IL-1RacP receptor (Homo sapiens, UniProt P14778); assay: IL-1-induced PGE2 synthesis in human chondrocytes; assay type: cell-based; parameters: endogenous in cells; settings: alanine scan peptides 10^−6M
T4 sequence (P14778 18-569): T2 sequence (P14778 18-569)
Protocol: as §1

IL-1R/IL-1RacP receptor [6] = assay: Ex vivo vasomotricity: reversal of IL-1β-induced vasodilation of piglet pial vessels; settings: IL-1β 75 ng/ml
Protocol: Ex vivo vasomotor response on brain vessels was performed as described (Li et al., 1996; Hou et al., 2000; Hou et al., 2001; Hou et al., 2003). Brains were removed from Yorkshire piglets. Slices of cortex exposing the pial vessels were pinned to a wax base of a 20 ml bath containing Krebs buffer (pH 7.4) equilibrated with 95% O2, 5% CO2 and maintained at 37° C. Microvessels were visualized and recorded using a video camera mounted on a dissecting microscope. Vascular diameter was measured using a digital image analyzer. Vascular diameter was recorded before and after topical application of pre-constricting agent, U46619 (10^−7 M). After stabilization of preparation, the ligand (IL-1β, 75 ng/ml) was added until stable vasodilation was detected. Peptides were subsequently added at different concentrations from 10^−10 to 10^−5 M. Reversal of vasodilatation was visualized and measured as previously described (Hou, et al. 2000; Hou et al. 2001; Hou et al. 2003); triplicate measurements were conducted on 2 animals.

[7] = Continuous infusion (ip), 0.5 mg/kg/d
[8] = Intermittent injection ip, 0.2-BID mg/kg/d

Compound: TVELA [API-101.12]
potency and efficacy, IL-1-induced PGE2 synthesis (IL-1R/IL-1RacP receptor [1]): decrease in potency and efficacy

Compound: CC(C)C[C@@H](NC(=O)[C@@H](CCC(=O)O)NC(=O)[C@H]1CC[C@H]2CC[C@@H](NC(=O)[C@@H](Cc3ccc(O)cc3)NC(=O)[C@H](N)CCCNC(=N)N)C(=O)N21)C(=O)N[C@H](C)C(N)=O [API-101.110, RY(I^2aa)ELA]
efficacy compared with API-101.107 (IL-1R/IL-1RacP receptor [3]): twice the efficacy
potency, fold higher than API-101.107 (IL-1R/IL-1RacP receptor [3]): 10 fold
IC50 (IL-1R): 0.01 nM

Compound: YTVELA [API-101.11]
potency and efficacy, IL-1-induced PGE2 synthesis (IL-1R/IL-1RacP receptor [1]): decrease in potency and efficacy

Compound: APRYTVALA [API-101.6]
inhibition of IL-1-induced PGE2 synthesis, compared with parent API-101 (IL-1R/IL-1RacP receptor [3]): lost almost all activity
inhibition of IL-1-induced PGE2 synthesis, compared with parent API-101 (IL-1R/IL-1RacP receptor [5]): lost almost all activity
reversal of IL-1β-induced vasodilation (IL-1R/IL-1RacP receptor [6]): reversed the vasodilation

Compound: AARYTVELA [API-101.1]
inhibition of IL-1-induced PGE2 synthesis, compared with parent API-101 (IL-1R/IL-1RacP receptor [3]): slightly improved efficacy
inhibition of IL-1-induced PGE2 synthesis, compared with parent API-101 (IL-1R/IL-1RacP receptor [5]): slightly improved efficacy
reversal of IL-1β-induced vasodilation (IL-1R/IL-1RacP receptor [6]): reversed the vasodilation
vasodilation abolished (IL-1R/IL-1RacP receptor [6]): 70%

Now from value to compound, other results behind:

IC50 (IL-1R/IL-1RacP receptor [1]; FIG. 15, cell type not stated): 1.2 pM
Compound: CC(C)C[C@@H](NC(=O)[C@@H](CCC(=O)O)NC(=O)[C@H]1CCCN1C(=O)[C@H](NC(=O)[C@@H](Cc1ccc(O)cc1)NC(=O)[C@H](N)CCCNC(=N)N)[C@H](C)O)C(=O)N[C@H](C)C(N)=O [API-101.107, RYTPELA] (HELM PEPTIDE1{[dR].[dY].[dT].[dP].[dE].[dL].[dA].[am]}$$$$V2.0; C-terminus assumed)
MPO (% of TNBS + Saline) [2, 7]: 37 % of TNBS + Saline
histologic evaluation (median score) [2, 7]: 1.5
MPO (% of TNBS + Saline) [2, 8]: 112 % of TNBS + Saline
histologic evaluation (median score) [2, 8]: 2.5
macroscopic evaluation (median score) [2, 8]: 1.37^†
reduction in MPO activity, macroscopic and histologic score, compared with Kineret ([2]; intraperitoneal osmotic pumps (continuous infusion)): superior or equivalent in efficacy to Kineret

prevention of IL-1β-induced hypotension, in words (IL-1R/IL-1RacP receptor [4]): less effective
Compound: PRYTVELA [API-101.9]
